According to patent publication US7579167B2, “Polypeptides involved in the biosynthesis of spiramycins, nucleotide sequences encoding these polypeptides and applications thereof” (Aventis Pharma S., priority 2002, dated 2009):

Tests used:
[1] = comparison with spiramycins II and III; cited from earlier work
[2] = tested on: Micrococcus luteus
From the text: The strain of Micrococcus luteus used is a strain naturally sensitive to spiramycin but resistant to congocidine.

SMILES | antibiotic activity compared with spiramycins II and III [1] | activity compared with the spiramycin of origin with the methyl group at position 4 (less active by a factor) ([2]; microbiological test on a sensitive strain of M. luteus) | microbiological activity compared with the unmodified spiramycin (weaker) ([2]; tested on the microorganism Micrococcus luteus, relative to unmodified spiramycin) [fold]
CO[C@@H]1[C@@H](O[C@@H]2O[C@H](C)[C@@H](O[C@H]3C[C@@](C)(O)[C@@H](O)[C@H](C)O3)[C@H](N(C)C)[C@H]2O)[C@@H](CC=O)C[C@@H](C)[C@@H](O[C@H]2CC[C@H](N(C)C)[C@@H](C)O2)/C=C/C=C/C[C@@H](C)OC(=O)C[C@H]1O [spiramycin I] | clearly greater | – | –
CC1CC=CC=CC(OC2CCC(N(C)C)C(C)O2)C(C)CC(CC=O)C(OC2OC(C)C(OC3CC(C)(O)C(O)C(C)O3)C(N(C)C)C2O)C(O)C(O)CC(=O)O1 (stereo not drawn) [spiramycin without the methyl group] | – | 10 | 10
